Experimental data from Sander's compilation of Henry's law constants (doi:10.1021/je700612b).

Test: Henry solubility constant Hcp at 298.15 K (mol/(m3 Pa))
Conditions: reference: Ji et al. (2008)

| Henry solubility constant Hcp | SMILES |
| --- | --- |
| 0.31 | Cc1ccccc1C=O [2-methylbenzaldehyde] |
| 19 | COc1cccc(C(C)=O)c1 [3′-methoxyacetophenone] |
| 1.2 | CC(=O)c1ccccc1 [1-phenylethanone] |
| 17 | COc1ccccc1C(C)=O [2′-methoxyacetophenone] |
| 10 | COc1ccccc1C=O [2-methoxybenzaldehyde] |
| 1.5 | CC(=O)c1cccc(C)c1 [3′-methylacetophenone] |
| 1 | CC(=O)c1ccccc1O [2′-hydroxyacetophenone] |
| 0.76 | CC(=O)c1ccccc1C [2′-methylacetophenone] |
| 1.8 | CC(=O)c1ccc(C)cc1 [4'-methylacetophenone] |

| SMILES | Henry solubility constant Hcp |
| --- | --- |
| COc1ccc(C=O)cc1 [4-methoxybenzaldehyde] | 24 |
| CCC(=O)c1ccccc1 [phenyl ethyl ketone] | 0.99 |
| COc1cccc(C=O)c1 [3-methoxybenzaldehyde] | 5.1 |
| Cc1cccc(C=O)c1 [3-methylbenzaldehyde] | 0.35 |
